For one data set, the target named is cyclophilin D (Cyp D) (Homo sapiens, UniProt P30405). The experiment in a line: Protease-free PPIase assay, cyclophilin D. Format: biochemical. In a few lines: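 Cis-trans isomerization of a succinimide-peptide substrate (60 µM final) by 2 nM enzyme was followed at 330 nm in 35 mM HEPES pH 7.8 with 50 µM DTT, stirred at 10.0 °C, DMSO ≤0.5%. First-order rate constants minus background were fitted against inhibitor concentration to give Ki.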

The next data set addresses T1, cyclophilin A (Cyp A) (Homo sapiens, UniProt P62937).
T1 construct: purchased Sigma C3805
The experiment in a line: Protease-free PPIase assay, cyclophilin A. Format: biochemical. In outline:
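Protease-free cis-trans isomerisation: 2 nM recombinant human cyclophilin A with 60 μM succinimide-peptide substrate in 35 mM HEPES pH 7.8 plus DTT, at 10.0 °C, max 0.5% DMSO. Absorbance at 330 nm was fitted to first-order kinetics, background subtracted, and catalytic rates versus inhibitor concentration gave Ki.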

Data set [1] is described as follows: Water solubility assay (pH 7.8 buffer). Format: physicochemical. In a few lines: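 DMSO stocks were diluted into 35 mM HEPES pH 7.8 to final 0–100 μM with 1% DMSO, in triplicate. Plates were shaken 18 h at 25 °C, then precipitation was detected as increased absorbance at 650 nm. Values give the concentration (μM) at which the compound remains in solution.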
Data set [2] concerns the target T2, calcineurin/cyclophilin A (Homo sapiens, UniProt P62937+P63098+Q08209).
T2 construct: purchased Enzo Life Sciences (calcineurin, calmodulin); Sigma (CypA) BML-AK804; C3805
The experiment in a line: Calcineurin phosphatase (CaN) assay in the presence of Cyp A. The class given is biochemical. Particulars: inhibitor in 1:1 complex with Cyp A; read-out: CaN + CypA (IC50 in the calcineurin/cyclophilin A assay). The text has this: **Calcineurin Phosphatase (CaN) Assay The calcineurin phosphatase assay is a means for estimating the immunosuppressive potential of a test compound. Calcineurin is a serine-threonine protein phosphatase that on activation dephosphorylates members of the nuclear factor of activated T cells (NFAT), which are important in T lymphocyte activation. […] To investigate the immunosuppressive potential of exemplary compounds of Formula 1, which are novel cycloundecadepsipeptide compounds, their ability to inhibit calcineurin activity was measured in the presence of Cyp A. The CaN assay kit used is based on a colorimetric assay for measuring calcineurin phosphatase activity, and it is commercially available (Enzo Life Sciences and Calbiochem). Calmodulin is also required for calcineurin activity and RH phosphopeptide is used as an efficient peptide substrate for calcineurin. […] The detection of free phosphate released is based on the classic Malachite green assay. Enzo Life Sciences CaN Assay Kit: BML-AK804 2× assay buffer: 100 mM Tris, pH7.5, 200 mM NaCl, 12 mM MgCl2, 1 mM DTT, 0.05% NP-40, 1 mM CaCl2 Calmodulin (Human, Recombinant): was thawed on ice, diluted 1:50 with 2× assay buffer, and then stored on ice. Calcineurin: was thawed quickly, stored on ice immediately, diluted 1:12.5 with 1× assay buffer, and then stored on ice. R-II Substrate: 915 μL ultrapure water (UPW) was added to the 1.5 mg vial substrate to give a final concentration of 0.75 mM. Inhibitors: 2.5 mM inhibitor in 100% DMSO. Cyp A: recombinant human CypA (Sigma C3805), 1 mg/ml; Recombinant 6-his tagged CypA prepared by the Univ. of Edinburgh was also used. […] Inhibitor dilutions: inhibitor compounds were diluted in UPW in polypropylene low-binding 96 well plates at 5x the final assay concentration. For samples ‘without Cyp A’, a 4-point dilution series of the inhibitor was prepared in duplicate to obtain a final assay concentration of 10, 1, 0.1 and 0.01 μM. […] Cs A inhibitor controls were also prepared to obtain a final concentration of 10 μM Cs A with and without 10 μM Cyp A. Assay Setup: using the half area 96 well plates supplied with the kit, 10 μl UPW was added to duplicate wells to provide the non-inhibited control. 10 μl of the inhibitor or the inhibitor/Cyp A complex was added to the appropriate sample wells. 25 μl of the 2× assay buffer with CaM was added to all wells, then 5 μl of CaN was added to all wells (40 U per well final concentration) except duplicate ‘no calcineurin blank’ wells to which 5 μL 1× assay buffer was added. […] The reaction was started by the addition of 10 μl RII-peptide (0.15 mM final concentration). The reaction was allowed to proceed at 30° C. for a time period in which the reaction is linear for about 60 minutes. The reaction was then terminated by adding 100 μl of the Malachite Green reagent. […] The data were analyzed by subtracting ‘no Calcineurin blank’ from all the absorbance readings and plotting the background corrected absorbances against Log10 inhibitor concentration. A sigmoidal-dose response curve was fitted to the data using GraphPad Prism Software. […] It exerts its immunosuppressive activity by binding to cyclophilin A to form a complex, which then binds to calcineurin and thereby inhibits calcineurin activity.

In brackets after ≈: the same amount, converted by molar mass. Read-outs that look alike come from different tables or passages of the source. Numbered stars: 1 amine (or outer) side, 2 acyl side, 3 side chain; on linkers, the order of the positions; unused ones are H or OH. Square brackets hold non-standard residues; d marks the D form. Peptide text beside a SMILES is read from it. X2 = C[C@H](CCCc1cccc(N2CCOCC2)n1)[C@@H](O)[C@H](C(=O)[*:2])N(C)[*:1]; X5 = C[C@H](CCN1CCS(=O)(=O)CC1)[C@@H](O)[C@H](C(=O)[*:2])N(C)[*:1]; X3 = C[C@H](CCN1CC2CCC(C1)O2)[C@@H](O)[C@H](C(=O)[*:2])N(C)[*:1]; X1 = Cc1cccc(CCC[C@@H](C)[C@@H](O)[C@H](C(=O)[*:2])N(C)[*:1])n1; X4 = C[C@H](C/C=C/c1ncccn1)[C@@H](O)[C@H](C(=O)[*:2])N(C)[*:1]; d(aThr) = C[C@@H](O)[C@@H](N)C(=O)O; NMeL = CN[C@@H](CC(C)C)C(=O)O; dNMeL = CN[C@H](CC(C)C)C(=O)O; dNMeV = CN[C@@H](C(=O)O)C(C)C; Hiv = CC(C)[C@H](O)C(=O)O; Sar = CNCC(=O)O

Here are results for six compounds from US9382295B2, “Cyclic depsipeptide compounds and their uses” (Cypralis Limited, priority 2012, dated 2016).

T2 sequence (P63098 whole entry, other chains not shown): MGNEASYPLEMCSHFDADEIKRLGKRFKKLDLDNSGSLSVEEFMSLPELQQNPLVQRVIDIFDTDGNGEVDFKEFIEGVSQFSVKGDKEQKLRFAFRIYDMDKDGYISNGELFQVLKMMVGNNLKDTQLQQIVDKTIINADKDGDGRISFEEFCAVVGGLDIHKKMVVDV
T2 sequence (P62937 whole entry, other chains not shown): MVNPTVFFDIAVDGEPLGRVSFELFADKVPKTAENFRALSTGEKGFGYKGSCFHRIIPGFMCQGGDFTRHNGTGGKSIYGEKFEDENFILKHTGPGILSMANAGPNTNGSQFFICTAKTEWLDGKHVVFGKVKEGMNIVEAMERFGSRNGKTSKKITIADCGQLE
Sequence of cyclophilin D (Cyp D) (P30405 30-207): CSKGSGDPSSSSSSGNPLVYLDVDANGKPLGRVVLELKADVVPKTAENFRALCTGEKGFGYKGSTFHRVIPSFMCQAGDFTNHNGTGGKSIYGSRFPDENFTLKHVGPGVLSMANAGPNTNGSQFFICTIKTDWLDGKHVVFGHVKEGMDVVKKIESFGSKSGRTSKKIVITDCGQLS
T1 sequence (P62937 whole entry): as the sequence (P62937 whole entry, other chains not shown) above

Usually Ki stands for a dissociation constant, usually derived from enzyme kinetics or from competition with a known ligand. Usually solubility stands for how much of the substance goes into solution per volume. For `C/C=C/C[C@@H](C)[C@@H](O)[C@@H]1C(=O)N[C@H]([C@@H](C)O)C(=O)N(C)CC(=O)N(C)[C@@H](CC(C)C)C(=O)N[C@H](CC(C)C)C(=O)N(C)[C@H](CC(C)C)C(=O)N[C@H](C)C(=O)O[C@@H](C(C)C)C(=O)N(C)[C@H](CC(C)C)C(=O)N[C@H](CC(C)C)C(=O)N(C)[C@H](C(C)C)C(=O)N1C` [Example 1, Cyclo-(MeBmt-Thr-Sar-MeLeu-Leu-MeLeu-Ala-D-Hiv-MeLeu-Leu-MeVal), reference compound], the Ki on cyclophilin D (Cyp D) turned out to be 3.2 nM; at cyclophilin A (Cyp A), 1.7 nM. In data set [1] (pH 7.8), this compound returned a solubility at 18 h of 10 to 25 µM (≈ 12.5 to 31.2 µg/mL). The IC50 in data set [2] turned out to be 70 nM.

For `CC(C)C[C@@H]1C(=O)N[C@H](CC(C)C)C(=O)N(C)[C@H](C(C)C)C(=O)N(C)[C@H]([C@H](O)[C@H](C)C/C=C/c2ncccn2)C(=O)N[C@H]([C@@H](C)O)C(=O)N(C)CC(=O)N(C)[C@@H](CC(C)C)C(=O)N[C@H](CC(C)C)C(=O)N(C)[C@H](CC(C)C)C(=O)N[C@H](C)C(=O)O[C@@H](C(C)C)C(=O)N1C` [Example 15, cyclo-{(3R,4R,5S)-4-(hydroxy)-3-methyl-5-(methylamino)-1-(pyrimidin-2-yl)-hept-1-enoic acid-Thr-Sar-MeLeu-Leu-MeLeu-Ala-D-Hiv-MeLeu-Leu-MeVal}] (cyclo([Hiv][dNMeL][dL][dNMeV][X4][d(aThr)][Sar][NMeL][dL][dNMeL][dA])), the Ki on cyclophilin D (Cyp D) and at cyclophilin A (Cyp A) was 1 to 25 nM in each case. The compound further showed a solubility at 18 h in data set [1] (pH 7.8) of 10 to 25 µM (≈ 13.1 to 32.8 µg/mL). Also, in data set [2], the IC50 was greater than 1000 nM.

With `Cc1cccc(CCC[C@@H](C)[C@@H](O)[C@@H]2C(=O)N[C@H]([C@@H](C)O)C(=O)N(C)CC(=O)N(C)[C@@H](CC(C)C)C(=O)N[C@H](CC(C)C)C(=O)N(C)[C@H](CC(C)C)C(=O)N[C@H](C)C(=O)O[C@@H](C(C)C)C(=O)N(C)[C@H](CC(C)C)C(=O)N[C@H](CC(C)C)C(=O)N(C)[C@H](C(C)C)C(=O)N2C)n1` [Example 17] (cyclo([Hiv][dNMeL][dL][dNMeV][X1][d(aThr)][Sar][NMeL][dL][dNMeL][dA])), the Ki on cyclophilin D (Cyp D) and at cyclophilin A (Cyp A) was 1 to 25 nM throughout. In addition, the solubility at 18 h in data set [1] (pH 7.8) is 10 to 25 µM (≈ 13.3 to 33.2 µg/mL). Further, in data set [2], the IC50 was greater than 1000 nM.

In the case of `CC(C)C[C@@H]1C(=O)N[C@H](CC(C)C)C(=O)N(C)[C@H](C(C)C)C(=O)N(C)[C@H]([C@H](O)[C@H](C)CCCc2cccc(N3CCOCC3)n2)C(=O)N[C@H]([C@@H](C)O)C(=O)N(C)CC(=O)N(C)[C@@H](CC(C)C)C(=O)N[C@H](CC(C)C)C(=O)N(C)[C@H](CC(C)C)C(=O)N[C@H](C)C(=O)O[C@@H](C(C)C)C(=O)N1C` [Example 20, cyclo-[(3R,4R,5S)-4-(hydroxy)-3-methyl-5-(methylamino)-1-(6-morpholin-4-yl-pyridin-2-yl)-heptanoic acid-Thr-Sar-MeLeu-Leu-MeLeu-Ala-D-Hiv-MeLeu-Leu-MeVal]] (cyclo([Hiv][dNMeL][dL][dNMeV][X2][d(aThr)][Sar][NMeL][dL][dNMeL][dA])), the inhibition constant (Ki) on cyclophilin D (Cyp D) (protease-free PPIase assay, class symbols, read-out: CypD Ki) was 1 to 25 nM; on cyclophilin A (Cyp A) (protease-free PPIase assay, class symbols, read-out: CypA Ki), 1 to 25 nM. The solubility at 18 h in data set [1] (35 mM HEPES buffer, 35 mM HEPES pH 7.8, 1% DMSO, 25° C., 18 h, concentration at which compound remains in solution, read-out: Solubility) was 10 to 25 µM (≈ 14 to 34.9 µg/mL). The IC50 in data set [2] was greater than 5000 nM.

As for `CC(C)C[C@@H]1C(=O)N[C@H](CC(C)C)C(=O)N(C)[C@H](C(C)C)C(=O)N(C)[C@H]([C@H](O)[C@H](C)CCN2CC3CCC(C2)O3)C(=O)N[C@H]([C@@H](C)O)C(=O)N(C)CC(=O)N(C)[C@@H](CC(C)C)C(=O)N[C@H](CC(C)C)C(=O)N(C)[C@H](CC(C)C)C(=O)N[C@H](C)C(=O)O[C@@H](C(C)C)C(=O)N1C` [Example 22, cyclo-[(3R,4R,5S)-4-(hydroxy)-3-methyl-5-(methylamino)-1-N-(8-oxa-3-aza-bicyclo[3.2.1]octane)-hexanoic acid-Thr-Sar-MeLeu-Leu-MeLeu-Ala-D-Hiv-MeLeu-Leu-MeVal]] (cyclo([Hiv][dNMeL][dL][dNMeV][X3][d(aThr)][Sar][NMeL][dL][dNMeL][dA])), the Ki at cyclophilin D (Cyp D) and on cyclophilin A (Cyp A) was 1 to 25 nM in each case. The same compound returned a solubility at 18 h in data set [1] (pH 7.8) of 25 to 50 µM (≈ 33.3 to 66.6 µg/mL). Moreover, the IC50 in data set [2] is greater than 10000 nM.

For `CC(C)C[C@@H]1C(=O)N[C@H](CC(C)C)C(=O)N(C)[C@H](C(C)C)C(=O)N(C)[C@H]([C@H](O)[C@H](C)CCN2CCS(=O)(=O)CC2)C(=O)N[C@H]([C@@H](C)O)C(=O)N(C)CC(=O)N(C)[C@@H](CC(C)C)C(=O)N[C@H](CC(C)C)C(=O)N(C)[C@H](CC(C)C)C(=O)N[C@H](C)C(=O)O[C@@H](C(C)C)C(=O)N1C` [Example 23, cyclo-[(3R,4R,5S)-4-(hydroxy)-3-methyl-5-(methylamino)-1-N-(thiomorpholine 1,1-dioxide)-hexanoic acid-Thr-Sar-MeLeu-Leu-MeLeu-Ala-D-Hiv-MeLeu-Leu-MeVal]] (cyclo([Hiv][dNMeL][dL][dNMeV][X5][d(aThr)][Sar][NMeL][dL][dNMeL][dA])), the Ki on cyclophilin D (Cyp D) and at cyclophilin A (Cyp A) was 1 to 25 nM throughout. The same compound yielded a solubility at 18 h in data set [1] (pH 7.8) of 75 to 100 µM (≈ 102 to 135 µg/mL). Further, the IC50 in data set [2] is greater than 10000 nM.
